# According to article PMC11134387, “Cancer-Stem-Cell Phenotype-Guided Discovery of a Microbiota-Inspired Synthetic Compound Targeting NPM1 for Leukemia” (JACS Au, 2024):
# pIC50: −log10 of the molar value. Entries after “also recorded” stand apart in the source; their conditions may differ.
# How the values were obtained:
# [1] = Plasma protein binding, equilibrium dialysis (RED); type: in vitro ADME; settings: pH 7.4, mouse serum, read-out: Plasma protein binding, bound fraction (converted)
# Method: Based on the encouraging results obtained in ex vivo models of AML, we further assessed the therapeutic potential of the new NPM1 inhibitor in vivo. Prior to the evaluation of the compound in an animal model of AML, in vivo pharmacokinetic studies were addressed. Following a single intraperitoneal administration of UCM-13369 at a dose of 25 mg/kg, levels of 200–600 μg/L were detected in mouse peripheral blood up to 6 h (Figure 6A). Plasma protein binding of the compound in mouse serum was measured using an equilibrium dialysis assay, indicating a bound fraction of 83 ± 1%. Next, the efficacy of the compound was evaluated in immunodeficient mice after injection of OCI-AML3-ffLuc-GFP cells as an AML animal model. […]
# coupled to a liquid nanochromatography Easy nLC 1200 System (Thermo Scientific).
# Once digested, mutant NPM1 C+ C-end sample w as injected into a EASY-Spray™ C18 column, and digestion peptides were separated by using a lineal phase gradi ent (A: 0.1% formic acid in water; B: 20% acetonitrile, 0.1% formic acid in water) for 120 min. Spectra were acquired in DDA m ode, analyzing the 10 higher intensity parent ions in each cycl e.
# Proteome Discoverer (Thermo Scientific) was used to align the spectra with the C-end […]
# Random exclusion of AIRs was set to 2%. […] Clusters were classifi ed according to H ADDOCK score and stru ctures w er e analyzed with UCSF ChimeraX).10 […]
# [2] = tested on: OCI-AML3-ffLuc-GFP cells; assay: AML xenograft mouse model (OCI-AML3-ffLuc-GFP in NSG mice); type: in vivo
# Method: Based on the encouraging results obtained in ex vivo models of AML, we further assessed the therapeutic potential of the new NPM1 inhibitor in vivo. Prior to the evaluation of the compound in an animal model of AML, in vivo pharmacokinetic studies were addressed. Following a single intraperitoneal administration of UCM-13369 at a dose of 25 mg/kg, levels of 200–600 μg/L were detected in mouse peripheral blood up to 6 h (Figure 6A). Plasma protein binding of the compound in mouse serum was measured using an equilibrium dialysis assay, indicating a bound fraction of 83 ± 1%. Next, the efficacy of the compound was evaluated in immunodeficient mice after injection of OCI-AML3-ffLuc-GFP cells as an AML animal model.
# An AML xenograft mouse model was used for the in vivo study of efficacy. Female 6- to 8-week-old NOD.Cg-Prkdcscid Il2rgtm1Wjl/SzJ (NSG) mice (Vivotecnia, Madrid, Spain) were inoculated intravenously by tail vein injection with OCI-AML3-ffLuc-GFP cells (1 × 10^6). Four days later, the mice were randomized into two groups of 10 animals: the first group received intraperitoneal injections of vehicle (0.9% saline solution) 5 days a week; the second group received intraperitoneal injections of 25 mg/kg or 50 mg/kg UCM-13369 five times weekly for 3 weeks. The mice were monitored for tumor burden, distribution, and engraftment every week by IVIS whole-body bioluminescence imaging. Bioimaging of MM burden in vivo was performed by IVIS Imaging system (Caliper Life Science). A solution of luciferin (D-luciferin monosodium salt, Thermo Fisher) in PBS was injected (150 mg/kg, ip), and luminescence signal was determined after 10 min. The data were analyzed using the Living Image 4.2 (Caliper Life Science) software.
# [3] = tested on: primary CD34+ cells from AML patients; assay: CFU-E colony-forming unit assay, AML patients; type: cell-based; settings: Homo sapiens
# Method: Considering the inhibitory capacity of UCM-13369 on AML cell lines (shown in Figure 3A), the therapeutic potential was assessed in primary CD34+ cells from AML patients. Two ex vivo models were used from AML patients and healthy donors: CD34+ liquid HSC (hematopoietic stem cell) culture as a short-term model and CFU-E (colony-forming unit–erythroid) as a midterm model.
# The test compound was diluted in PBS. […]
# Primary cells. 1x10^6/mL total mononuclear bone marrow cells (as source of CD34+ HSCs) of healthy donors and AML patients were used. They were cultured using Stem SpanTM supplement with pencillin/streptomycin (500 U/ml), TPO (10 µg/mL), SCF (10 µg/mL), FLT3 (10 µg/mL), IL-6 (10 µg/mL) and IL-3 (10 µg/mL). After 24 h fresh medium was added. After 72 h in maintenance cells were ready to start the assays. All cells wer e maintained at 37 °C in a humidified incubator in an atmosphere of 5% CO2.
# Colonospheres, mamospheres and colony formation unit assays. 30.000 cells per well of MCF-7 cells (mamos pheres), HCT-116 cells (colonospheres) and CD34+ cells from patients (colony formation units) were seeded in serum free non- adherent medium or […]
# MethoCult (Stem Cell). […]
smiles,measurement,setting,value
"COc1ccc(C2Cc3[nH]c4ccccc4c3C(CCNCC3CC3)C2N)cc1 (stereo not drawn) [4b, 4-{2-[(Cyclopropylmethyl)amino]ethyl}-2-(4-methoxyphenyl)-2,3,4,9-tetrahydro-1H-carbazol-3-amine]",fraction unbound at 6 h,[1],0.17
same,Reduction in tumor mass (in words),"[2]; 25 mg/kg, data not shown",negligible
same,"Tumor cell infiltration of bone marrow, H&E staining (in words)",[2]; 50 mg/kg,less tumor cell infiltration
same,"Survival, treated vs untreated animals (in words)","[2]; 50 mg/kg, Kaplan-Meier, listed as UCM-13369",no significant differences; also recorded: no difference
same,Tumor infiltration vs untreated group at end point (in words),"[2]; 50 mg/kg, bioluminescence",reduction of tumor infiltration
same,pIC50,[3],6.52
